Test results published in patent publication US8148378B2, “Pyridazine derivatives and their use as inhibitors of stearoyl-CoA desaturase-1 activity in a mammal” (Xenon Pharmaceuticals Inc., priority 2003, dated 2012).
Like-named read-outs stand apart in the source and are kept apart here.

How the values were obtained:
[1] = target: T1, Stearoyl-CoA Desaturase (SCD) (Mus musculus, UniProt P13516); assay: Stearoyl-CoA desaturase inhibition using mouse liver microsomes; assay type: biochemical; conditions: for Residual Activity (% remaining, 1 μM): % SCD enzyme activity remaining at 1 μM test compound; for Residual Activity (% remaining, 10 μM): % SCD enzyme activity remaining at 10 μM test compound
T1 construct: from tissue; host or cells: liver microsomes of male ICR mice on a high-carbohydrate, low fat diet
T1 sequence (P13516 1-355): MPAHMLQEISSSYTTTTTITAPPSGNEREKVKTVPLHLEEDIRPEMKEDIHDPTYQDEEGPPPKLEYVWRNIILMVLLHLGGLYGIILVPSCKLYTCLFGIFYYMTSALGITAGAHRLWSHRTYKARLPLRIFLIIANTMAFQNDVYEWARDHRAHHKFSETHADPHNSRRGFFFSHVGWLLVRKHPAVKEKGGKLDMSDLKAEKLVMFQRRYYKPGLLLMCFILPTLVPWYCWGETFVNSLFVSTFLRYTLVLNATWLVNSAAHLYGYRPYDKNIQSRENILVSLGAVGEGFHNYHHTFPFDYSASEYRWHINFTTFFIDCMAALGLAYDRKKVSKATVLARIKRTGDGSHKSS
Protocol: Preparation of Mouse Liver Microsomes:
The absence of mitochondrial contamination is enzymatically assessed.
Incubation of Mouse Liver Microsomes with Test Compounds: […]

SCD = target: T2, SCD (Homo sapiens, UniProt O00767); assay: Cell IC50 of SCD inhibitors (Table 1, no method given); assay type: cell-based; conditions: cell assay, cell type not stated
T2 sequence (O00767 1-359): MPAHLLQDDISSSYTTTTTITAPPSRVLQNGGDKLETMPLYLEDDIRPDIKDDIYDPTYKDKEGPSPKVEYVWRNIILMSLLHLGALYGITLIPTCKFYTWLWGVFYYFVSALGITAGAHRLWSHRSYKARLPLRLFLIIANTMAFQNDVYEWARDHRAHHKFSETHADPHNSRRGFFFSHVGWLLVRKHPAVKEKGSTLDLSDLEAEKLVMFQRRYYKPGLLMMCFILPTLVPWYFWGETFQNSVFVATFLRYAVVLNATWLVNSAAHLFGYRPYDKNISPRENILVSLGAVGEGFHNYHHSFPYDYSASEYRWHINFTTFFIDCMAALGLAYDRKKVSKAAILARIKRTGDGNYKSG

[2] = projected from residual activity at 1 and 10 μM, read-out: Projected IC50
[3] = microsomal assay, read-out: Microsome IC50

Row | Residual Activity (% remaining, 1 μM) [1] [% remaining] | Residual Activity (% remaining, 10 μM) [1] [% remaining] | IC50 [1, 2] [nM] | IC50 [1, 3] [nM] | IC50 (SCD) [nM] | SMILES
1 | 86.210 | 57.955 | 10000 to 50000 | – | – | CN(CCc1ccccc1)c1ccc(N2CCN(C(=O)c3ccccc3C(F)(F)F)CC2)nn1 [Example 1, {4-[6-(METHYLPHENETHYLAMINO)PYRIDAZIN-3-YL]PIPERAZIN-1-YL}-(2-TRIFLUOROMETHYLPHENYL)METHANONE]
2 | 91.144 | 55.946 | 10000 to 50000 | – | – | O=C(c1ccccc1C(F)(F)F)N1CCN(c2ccc(NCCc3ccccc3)nn2)CC1 [Example 1.1, [4-(6-PHENETHYLAMINOPYRIDAZIN-3-YL)PIPERAZIN-1-YL]-(2-TRIFLUOROMETHYLPHENYL)METHANONE]
3 | – | – | – | 6250 | 10500 | CCCS(=O)(=O)Nc1ccc(N2CCN(C(=O)c3ccccc3C(F)(F)F)CC2)nn1 [Example 2, PROPANE-1-SULFONIC ACID {6-[4-(2-TRIFLUOROMETHYLBENZOYL)PIPERAZIN-1-YL]PYRIDAZIN-3-YL}AMIDE]
4 | – | – | – | 67 | 111 | O=C(c1ccccc1C(F)(F)F)N1CCN(c2ccc(S(=O)(=O)CCc3ccccc3)nn2)CC1 [Example 3, {4-[6-(2-PHENYLETHANESULFONYL)PYRIDAZIN-3-YL]PIPERAZIN-1-YL}-(2-TRIFLUOROMETHYL-PHENYL)METHANONE]
5 | – | – | – | 67 | 175 | O=C(c1ccccc1C(F)(F)F)N1CCN(c2ccc([S+]([O-])CCc3ccccc3)nn2)CC1 (stereo not drawn) [Example 4]
6 | – | – | – | 4550 | 4300 | O=C(c1ccccc1C(F)(F)F)N1CCN(c2ccc(OCCc3ccccc3)nn2)CC1 [Example 5, [4-(6-PHENETHYLOXYPYRIDAZIN-3-YL)PIPERAZIN-1-YL]-(2-TRIFLUOROMETHYL-PHENYL)METHANONE]
7 | 53.875 | 29.330 | 1000 to 10000 | – | – | O=C(c1ccccc1C(F)(F)F)N1CCN(c2ccc(OCCC3CC3)nn2)CC1 [Example 5.1, {4-[6-(2-CYCLOPROPYLETHOXY)PYRIDAZIN-3-YL]PIPERAZIN-1-YL}-(2-TRIFLUOROMETHYLPHENYL)METHANONE]
8 | – | – | – | 60 | 33 | O=C(c1ccccc1C(F)(F)F)N1CCN(c2ccc(SCCc3ccccc3)nn2)CC1 [Example 6, [4-(6-PHENETHYLSULFANYLPYRIDAZIN-3-YL)PIPERAZIN-1-YL](2-TRIFLUOROMETHYLPHENYL)METHANONE]
9 | – | – | – | 447 | 849 | CC(C)CCSc1ccc(N2CCN(C(=O)c3ccccc3C(F)(F)F)CC2)nn1 [Example 6.1, {4-[6-(3-METHYLBUTYLSULFANYL)PYRIDAZIN-3-YL]PIPERAZIN-1-YL}-(2-TRIFLUOROMETHYL-PHENYL)METHANONE]
